Source: patent publication US8569504B2, “Imidazopyridine compound” (Ono Pharmaceutical Co., Ltd., priority 2009, dated 2013)

Key:
Human chymase = target: T1, Human chymase (Homo sapiens, UniProt P23946); assay: Measurement of human chymase enzyme inhibitory activity; format: biochemical; conditions: for IC90: concentration at which 90% of enzyme activity was inhibited; for IC50: peptide substrate N-Succinyl-Ala-Ala-Pro-Phe-p-nitroanilide 2.5 mmol/L, 37° C., pH 7.6
T1 construct: purchased East Coast Biologics
T1 sequence (P23946 22-247): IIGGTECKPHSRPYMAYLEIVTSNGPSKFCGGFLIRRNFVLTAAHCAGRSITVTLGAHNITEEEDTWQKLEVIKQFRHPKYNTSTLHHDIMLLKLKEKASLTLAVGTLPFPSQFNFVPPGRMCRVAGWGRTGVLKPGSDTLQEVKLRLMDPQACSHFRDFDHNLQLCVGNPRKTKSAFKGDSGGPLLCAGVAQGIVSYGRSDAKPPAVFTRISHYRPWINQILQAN
Description: Human Chymase Pure (hereunder called chymase; East Coast Biologics) was stored in a freezer at −20° C., and diluted with distilled water immediately prior to use. N-Succinyl-Ala-Ala-Pro-Phe-p-nitroanilide (hereunder called the peptide substrate; Sigma Aldrich) was prepared with dimethylsulfoxide (hereunder called DMSO) as a 50 mmol/L solution, and stored in a freezer at −20° C. The compound of the present invention and the comparative compounds were prepared with DMSO as 10 mmol/L solutions, and stored in a freezer at −20° C. On the day of measurement, the solutions of the compound of the present invention and the comparative compound were diluted in stages with 50% DMSO to 10 times concentration of the final target concentration, and the solution were prepared. 10 μL solutions of the compounds of the present invention and the comparative compounds, and 80 μL solution of a peptide substrate (final concentration 2.5 mmol/L) diluted with assay buffer (50 mmol/L Tris-HCl, 150 mmol/L NaCl, 50 units/mL heparin (pH 7.6)) were added to a 96-well microplate, incubated for 10 minutes at 37° C. 10 μL of chymase was added to a final concentration of 0.1 μg/L to initiate enzyme activity. Absorbance at 405 nm was monitored for 5 minutes at 30-second intervals, and the reaction speed (Δm O.D./minute) was measured. 10 μL of 50% DMSO was added to the control well and blank well in place of the solutions of the compound of the present invention and the comparative compound. Moreover, 10 μL of distilled water was added to the blank well in place of chymase. Given 100% as the value of the control well reaction speed minus the blank well reaction speed, the reaction speeds of the wells containing the compound of the present invention and the comparative compounds were calculated as percentages.

[1] = tested on: HepG2 human liver cancer cell lines; assay: Measurement of cell toxicity using HepG2 human liver cancer cell lines (ATP, Celltiter Glo); format: cell-based; conditions: 24 hours of exposure, ATP concentration; concentration that produced toxicity in 10% of cells
Description: (§1) The cells were then exposed to the compound of the present invention and the comparative compounds for 24 hours. The compound of the present invention and the comparative compounds were dissolved with DMSO, and then diluted 100 times with culture liquid comprising L-glutamine, non-essential amino acids and 1% bovine fetal serum which were added to minimum essential medium (MEM). […] The cells were dissolved with the assay buffer in the measurement kit, and the ATP concentration released from the cells was measured based on luciferin-luciferase enzyme activity. Light emission was measured with a SpectraMax plate reader (Molecular Device).

[2] = as above; format: cell-based; conditions: human, HepG2 cells; 24 hours of exposure, ATP concentration
Description: as §1

[3] = Stability experiment using human liver microsomes; format: in vitro ADME; conditions: 5 μmol/L, 0.5 mg/mL human liver microsomes with NADPH, 15 minutes, 37° C.
Description: 5 μL of the compound of the present invention and each comparative compound (10 mmol/L DMSO solution) was diluted with 195 μL of 50% acetonitrile aqueous solution to prepare 250 μmol/L solutions of the compound of the present invention and comparative compound. 245 μL of 0.5 mg/mL human liver microsomes (0.1 mol/L pH 7.4 phosphate buffer solution) containing NADPH Co factor (NADPH Regenerating System Solution A (BD Bioscience) and NADPH Regenerating System Solution B (BD Bioscience), each diluted 10 times and 50 times with 0.1 mol/L pH 7.4 phosphate buffer (NADP+2.6 mmol/L)) were added to a reaction container that had been warmed in advance to 37° C. in a water bath, and pre-incubated for 5 minutes, after which 5 μL solution of the compound of the present invention and the comparative compound was added to initiate a reaction (final concentration 5 μmol/L). Immediately after initiation 20 μL was collected, and 20 μL was added to 180 μL of acetonitrile containing I.S. (internal standard (warfarin)) to terminate the reaction. 180 μL of 50% acetonitrile aqueous solution was added to this 20 μL on a plate with a protein exclusion filter, stirred and filtered by suction. The filtrate was used as a standard sample. After incubating the reaction solution for 15 minutes, 20 μL of a liver microsome solution was collected, and added to 180 μL of acetonitrile containing I.S. (internal standard (warfarin)) in order to terminate the reaction. 180 μL of 50% acetonitrile aqueous solution was added to this 20 μL on a plate with a protein exclusion filter, stirred and filtered by suction. The filtrate was used as a reaction sample. The survival ratio (%) was calculated by injecting 5 μL of sample solution into a LC-MS/MS (Thermo Scientific Discovery Max), dividing the peak area ratio of the reaction sample (the compound of the present invention and the comparative compound/I.S.) by the peak area ratio of the standard sample, and multiplying by 100.

Q: Which IC90 (Human chymase) does the source give for `Cc1cccc2c1c(Cn1c(Sc3ccccc3C(=O)O)nc3ccccc31)cn2C` [Comparative Compound 4, 2-([1-[(1,4-dimethyl-1H-indol-3-yl)methyl]-1H-benzimidazol-2-yl]thio)benzoic acid, reference compound] here?
A: Its IC90 is 790 nM.

Q: And the IC50 (Human chymase)?
A: The IC50 was 75 nM.

Q: And the “Cell toxicity in HepG2 human liver cancer cell lines IC10” value (“Cell toxicity” for short) [1]?
A: Its value is 53000 nM.

Q: And the IC50 at 24 h [2]?
A: The IC50 at 24 h was 84000 nM.

Q: Which IC90 (Human chymase) does the source give for `Cc1cccc2c1c(Cc1c(-c3ccccc3C(=O)O)nc3ccccn13)cn2C` [Example 13, 2-{3-[(1,4-dimethyl-1H-indol-3-yl)methyl]imidazo[1,2-a]pyridin-2-yl}benzoic acid] here?
A: The IC90 was 200 nM.

Q: And the IC50 (Human chymase)?
A: Its IC50 is 28 nM.

Q: What about the “Cell toxicity” value [1] of the same molecule?
A: The value was 135000 nM.

Q: And the IC50 at 24 h [2]?
A: Its IC50 at 24 h is 424000 nM.

Q: And the “Human liver Ms stability (survival ratio)” value [3]?
A: Its value is 93%.

Q: Which IC90 (Human chymase) does the source give for `Cc1c(F)ccc2[nH]cc(Cc3c(-c4ccccc4C(=O)O)nc4ccccn34)c12` [Example 19, 2-{3-[(5-fluoro-4-methyl-1H-indol-3-yl)methyl]imidazo[1,2-a]pyridin-2-yl}benzoic acid] here?
A: Its IC90 is 120 nM.

Q: What about the IC50 (Human chymase) of the same molecule?
A: The IC50 was 11 nM.

Q: What about the “Cell toxicity” value [1] of the same molecule?
A: Its value is 70000 nM.

Q: What about the IC50 at 24 h [2] of the same molecule?
A: The IC50 at 24 h was 247000 nM.

Q: And the “Human liver Ms stability (survival ratio)” value [3]?
A: The value was 100%.

Q: Which IC90 (Human chymase) does the source give for `Cc1ccc2nc(-c3ccccc3C(=O)O)c(Cc3cn(C)c4cccc(C)c34)n2c1` [Example 11, 2-{3-[(1,4-dimethyl-1H-indol-3-yl)methyl]-6-methylimidazo[1,2-a]pyridin-2-yl}benzoic acid] here?
A: The IC90 was 270 nM.

Q: And the IC50 (Human chymase)?
A: Its IC50 is 23 nM.

Q: What about the “Cell toxicity” value [1] of the same molecule?
A: The value was 248000 nM.

Q: And the IC50 at 24 h [2]?
A: Its IC50 at 24 h is > 400000 nM.

Q: And the “Human liver Ms stability (survival ratio)” value [3]?
A: The value was 86%.

Q: Which results are given for `Cc1cccc2[nH]cc(Cc3c(-c4ccc5ccccc5c4C(=O)O)nc4ccccn34)c12` [Example 7, 2-[3-[(4-methyl-1H-indol-3-yl)methyl]imidazo[1,2-a]pyridin-2-yl]-1-naphthoic acid]?
A: IC90 (Human chymase): 63 nM; IC50 (Human chymase): 1 nM; Cell toxicity in HepG2 human liver cancer cell lines IC10 [1]: 58000 nM; IC50 at 24 h [2]: 132000 nM; Human liver Ms stability (survival ratio) [3]: 93%

Q: With `Cc1cccc2c1c(Cc1c(-c3ccc4ccccc4c3C(=O)O)nc3ccccn13)cn2CCN1CCOCC1` [Example 23-(4), 2-[3-({4-methyl-1-[2-(4-morpholinyl)ethyl]-1H-indol-3-yl}methyl)imidazo[1,2-a]pyridin-2-yl]-1-naphthoic acid] as the molecule, how does the IC90 (Human chymase) read?
A: The IC90 was 8 nM.

Q: What about the IC50 (Human chymase) of the same molecule?
A: Its IC50 is 2 nM.

Q: What about the “Cell toxicity” value [1] of the same molecule?
A: The value was 79000 nM.

Q: And the IC50 at 24 h [2]?
A: Its IC50 at 24 h is 173000 nM.

Q: What about the “Human liver Ms stability (survival ratio)” value [3] of the same molecule?
A: The value was 100%.

Q: With `Cc1cccc2scc(Cc3c(SCCCC(=O)O)nc4ccccn34)c12` [Comparative Compound 2, 4-[3-(4-methyl-benzo[b]thiophen-3-ylmethyl)-imidazo[1,2-a]pyridin-2-ylsulfanyl]butanoic acid, reference compound] as the molecule, how does the IC90 (Human chymase) read?
A: Its IC90 is 2800 nM.

Q: What about the IC50 (Human chymase) of the same molecule?
A: The IC50 was 340 nM.

Q: What about the “Cell toxicity” value [1] of the same molecule?
A: Its value is 66000 nM.

Q: And the IC50 at 24 h [2]?
A: Its IC50 at 24 h is 219000 nM.

Q: Which IC90 (Human chymase) does the source give for `Cc1cccc2[nH]cc(Cc3c(-c4ccc5ccccc5c4C(=O)O)nc4ccc(F)cn34)c12` [Example 16, 2-{6-fluoro-3-[(4-methyl-1H-indol-3-yl)methyl]imidazo[1,2-a]pyridin-2-yl}-1-naphthoic acid] here?
A: The IC90 was 6 nM.

Q: And the IC50 (Human chymase)?
A: Its IC50 is 1 nM.

Q: And the “Cell toxicity” value [1]?
A: Its value is 29000 nM.

Q: What about the IC50 at 24 h [2] of the same molecule?
A: The IC50 at 24 h was 131000 nM.

Q: And the “Human liver Ms stability (survival ratio)” value [3]?
A: The value was 88%.

Q: What does the source list for `CCn1cc(Cc2c(-c3ccccc3C(=O)O)nc3ccccn23)c2c(C)cccc21` [Example 15, 2-{3-[(1-ethyl-4-methyl-1H-indol-3-yl)methyl]imidazo[1,2-a]pyridin-2-yl}benzoic acid]?
A: IC90 (Human chymase): 240 nM; IC50 (Human chymase): 30 nM; Cell toxicity in HepG2 human liver cancer cell lines IC10 [1]: 115000 nM; IC50 at 24 h [2]: 267000 nM; Human liver Ms stability (survival ratio) [3]: 87%

Q: With `O=C(O)c1ccccc1Sc1nc2ccccc2n1Cc1cccc2ccccc12` [Comparative Compound 3, 2-{[1-(1-naphthylmethyl)-1H-benzimidazol-2-yl]thio}benzoic acid, reference compound] as the molecule, how does the IC90 (Human chymase) read?
A: The IC90 was 1600 nM.

Q: What about the IC50 (Human chymase) of the same molecule?
A: Its IC50 is 130 nM.

Q: What about the “Cell toxicity” value [1] of the same molecule?
A: The value was 29000 nM.

Q: And the IC50 at 24 h [2]?
A: Its IC50 at 24 h is 40000 nM.

Q: For `Cc1cccc2scc(Cn3c(SCCCC(=O)O)nc4ccccc43)c12` [Comparative Compound 1, 4-(1-((4-methylbenzothiophen-3-yl)methyl)benzimidazol-2-ylthio)butanoic acid, reference compound], which “Cell toxicity” value [1] is on record?
A: Its value is 45000 nM.

Q: What about the IC50 at 24 h [2] of the same molecule?
A: The IC50 at 24 h was 81000 nM.
